Reference: US20220144812A1, “QUINOLINE DERIVATIVES AND THEIR USE FOR THE TREATMENT OF CANCER” (Epizyme, Inc., priority 2019, published 2022)
Where two headings read alike, the source gives them in different places.

Tests used:
[1] = test system: H3K18Ac in HB-CLS-2 cells; assay: H3K18AC in-cell western (ICW) assay; assay type: cell-based; conditions: read-out: CREBBP ICW IC50
Method in brief: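 HB-CLS-2 cells seeded 16–24 hours before 2 hr compound treatment at 37° C, 5% CO2, then methanol-fixed. H3K18Ac detected with rabbit monoclonal primary (overnight, 4° C) and 800CW anti-rabbit secondary; DRAQ5 stained DNA. Plates imaged at 700 and 800 nm for integrated intensity; IC50 in μM.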

[2] = test system: 647V cells; assay: High throughput proliferation (HTP) assay; assay type: cell-based; conditions: Homo sapiens, 647-V, read-out: CREBBP HTP IC50
Method in brief: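 Exponentially growing 647V cells in DMEM with 15% FBS were treated in triplicate with increasing compound concentrations at 37° C, 5% CO2. Viable cell number was read by CellTiter-Glo luminescence on day 7; IC50 in micromolar.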

[3] = target: T1, CREBBP (1084-1701) (Homo sapiens, UniProt Q92793); assay: Biochemical assay for CREBBP (1084-1701), SAMDI; conditions: read-out: CREBBP Biochemistry IC50
T1 construct: measured in the following biochemical assay using CREBBP (1084-1701); purchased
T1 sequence (Q92793 1084-1701): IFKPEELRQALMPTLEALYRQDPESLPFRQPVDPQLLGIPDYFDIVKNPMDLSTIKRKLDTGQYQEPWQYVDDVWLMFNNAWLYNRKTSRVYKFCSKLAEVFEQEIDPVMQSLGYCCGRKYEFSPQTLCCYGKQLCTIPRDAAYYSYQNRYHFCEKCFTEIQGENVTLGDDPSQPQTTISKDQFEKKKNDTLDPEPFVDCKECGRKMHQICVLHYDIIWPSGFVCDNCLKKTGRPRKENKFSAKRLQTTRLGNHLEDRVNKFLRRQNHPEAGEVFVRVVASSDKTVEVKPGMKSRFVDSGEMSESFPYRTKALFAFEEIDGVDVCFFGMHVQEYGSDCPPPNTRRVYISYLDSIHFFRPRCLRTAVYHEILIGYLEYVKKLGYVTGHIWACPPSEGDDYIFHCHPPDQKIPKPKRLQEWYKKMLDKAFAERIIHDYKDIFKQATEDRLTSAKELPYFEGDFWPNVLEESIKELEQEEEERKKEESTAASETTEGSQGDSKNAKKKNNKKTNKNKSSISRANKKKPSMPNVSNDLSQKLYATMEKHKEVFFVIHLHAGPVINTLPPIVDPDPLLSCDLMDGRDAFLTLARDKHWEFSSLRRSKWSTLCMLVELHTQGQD
Method in brief: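 CREBBP (1084-1701) preincubated with compound 30 min at RT, then substrate mix (biotin-H3 11-25 K14R/K23R peptide, acetyl-CoA) added for 30 min at RT. Reaction stopped with formic acid, neutralised with sodium bicarbonate. Peptide acetylation read by SAMDI mass spectrometry to derive IC50.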

[4] = target: T2, EP300 (P300(1048-1664)) (Homo sapiens, UniProt Q09472); assay: Biochemical assay for EP300, SAMDI; conditions: read-out: EP300 Biochemistry IC50
T2 construct: P300(1048-1664)
T2 sequence (Q09472 1048-1664): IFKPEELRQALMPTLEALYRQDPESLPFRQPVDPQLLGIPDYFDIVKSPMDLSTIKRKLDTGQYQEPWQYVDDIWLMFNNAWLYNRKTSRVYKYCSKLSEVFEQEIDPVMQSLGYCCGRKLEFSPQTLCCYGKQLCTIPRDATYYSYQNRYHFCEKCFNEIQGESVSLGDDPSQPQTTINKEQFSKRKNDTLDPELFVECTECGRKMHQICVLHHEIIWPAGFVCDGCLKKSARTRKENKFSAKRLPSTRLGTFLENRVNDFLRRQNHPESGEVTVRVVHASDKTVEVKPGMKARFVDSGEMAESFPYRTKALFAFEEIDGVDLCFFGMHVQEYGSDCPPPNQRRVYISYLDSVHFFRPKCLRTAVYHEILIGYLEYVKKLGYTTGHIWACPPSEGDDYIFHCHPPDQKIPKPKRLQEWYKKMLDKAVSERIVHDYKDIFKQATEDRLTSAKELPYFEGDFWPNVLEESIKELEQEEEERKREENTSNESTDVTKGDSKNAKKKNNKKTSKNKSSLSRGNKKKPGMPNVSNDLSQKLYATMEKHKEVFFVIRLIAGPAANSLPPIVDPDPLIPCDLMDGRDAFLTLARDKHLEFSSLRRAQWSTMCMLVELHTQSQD
Text: The following example describes materials and methods relating to a biochemical assay for EP300. IC50 values (micromolar (μM)) are summarized in Table 1, Table 2, and Table 3 under the column labeled: “EP300 Biochemistry IC50 (micromolar).”

[5] = H3K18Ac in-cell western, HB-CLS-2 cells
[6] = high throughput proliferation, 647V cells

| Compound | IC50 ([1]; H3K18Ac in-cell western) [nM] | IC50 ([2]; high throughput proliferation) [nM] | IC50 ([3]; SAMDI) [nM] | IC50 ([4]; EP300, SAMDI) [nM] | IC50 [1, 5] [nM] | IC50 [2, 6] [nM] | IC50 ([1]; 2 h, H3K18Ac in HB-CLS-2 cells, 2 hrs compound incubation) [nM] | IC50 ([2]; 168 h, 647V cells, day 7, CellTiter-Glo) [nM] | IC50 ([3]; Peptide #233, Acetyl-CoA, SAMDI mass spectrometry) [nM] | IC50 ([4]; P300(1048-1664), Peptide #233, Ac-CoA, SAMDI mass spectrometry) [nM] |
| --- | --- | --- | --- | --- | --- | --- | --- | --- | --- | --- |
| CCn1ncc(CN(C)C(=O)c2cc(-c3ccc(OCC(O)CNC)c(C)n3)nc3ccc(COC)cc23)c1C (stereo not shown) [Compound 496] | 937 | 689 | 167 | 59.9 | – | – | – | – | – | – |
| CCn1ncc(CN(C)C(=O)c2nc(-c3cc(C#N)cc(NCCNC)c3)nc3ccc(Cl)cc23)c1C [Compound 9] | 90 | 51 | 15 | 11 | – | – | – | – | – | – |
| CCn1ncc(CN(C)C(=O)c2nc(-c3ccc4nc[nH]c4c3Cl)nc3ccc(COC)cc23)c1C [Compound 89] | 1600 | 1200 | 180 | 1000 | – | – | – | – | – | – |
| CCn1ncc(CN(C)C(=O)c2nc(-c3cc(-c4ncon4)n(C)n3)nc3ccc(Cl)cc23)c1C [Compound 450] | 20000 | 20000 | ≥ 50000 | 24600 | – | – | – | – | – | – |
| CCn1ncc(CN(C)C(=O)c2nc(-c3cc4[nH]ncc4nc3C)nc3ccc(Cl)cc23)c1C [Compound 528] | 603 | 1110 | 1060 | 1050 | – | – | – | – | – | – |
| CCn1ncc(CN(C)C(=O)c2nc(-c3ccc(OCCNC(C)=O)c(Cl)c3)nc3ccc(Cl)cc23)c1C [Compound 35] | 290 | 220 | 44 | 180 | – | – | – | – | – | – |
| CCn1ncc(CN(C)C(=O)c2nc(-c3ccc(OCCNC)nn3)nc3ccc(Cl)cc23)c1C [Compound 414] | – | – | 30000 | 44000 | 20000 | 20000 | – | – | – | – |
| CCn1ncc(CN(C)C(=O)c2cc(-c3cc(C(=O)NC)n(C)n3)nc3ccc(C4CC4)cc23)c1C [Compound 635] | – | – | – | – | – | – | 52.6 | 143 | 24.2 | 6.6 |
| CCn1ncc(CN(C)C(=O)c2cc(-c3cc(C)c(OCCNC)cn3)nc3ccc(Cl)cc23)c1C [Compound 410] | – | – | 5500 | 1400 | 6100 | 2800 | – | – | – | – |
| CCn1ncc(CN(C)C(=O)c2nc(-c3cc(C)cc(NC(=O)CNC)c3)nc3ccc(Cl)cc23)c1C [Compound 13] | 120 | 110 | 10 | 7.7 | – | – | – | – | – | – |
| CCn1ncc(CN(C(=O)c2cc(-c3ccc(NCCNC)c(C)n3)nc3ccc(Cl)cc23)C(C)C)c1C [Compound 465] | 4870 | 1930 | 364 | 1480 | – | – | – | – | – | – |
| CCn1ncc(CN(C)C(=O)c2nc(-c3cc4c(NC)[nH]nc4cc3C)nc3ccc(C)cc23)c1C [Compound 612] | 46.3 | 40.9 | 18 | 6.6 | – | – | – | – | – | – |
| CCn1ncc(CN(C)C(=O)c2nc(-c3cc4c(N)n(CCNC)nc4cc3C)nc3ccc(Cl)cc23)c1C [Compound 515] | 166 | 78.5 | 70.5 | 49.4 | – | – | – | – | – | – |
| CCn1ncc(CN(C)C(=O)c2nc(-c3ccc(OCC(O)CNC)cc3Cl)nc3ccc(Cl)cc23)c1C (stereo not shown) [Compound 20] | 180 | 71 | 27 | 10 | – | – | – | – | – | – |
| CCc1ncc(CN(C)C(=O)c2nc(-c3cc4c(NC)n[nH]c4cc3C)nc3ccc(Cl)cc23)n1C [Compound 563] | 55.4 | 37.5 | 13.5 | 5.7 | – | – | – | – | – | – |
| CCn1ncc(CN(C)C(=O)c2nc(-c3cc4c(N)nn(CCNC)c4cc3C)nc3ccc(Cl)cc23)c1C [Compound 507] | 1600 | 1010 | 556 | 1360 | – | – | – | – | – | – |
| CCn1ncc(CN(C)C(=O)c2cc(-c3ccc(NC4CN(CC#N)C4)c(C)n3)nc3ccc(Cl)cc23)c1C [Compound 601] | 143 | 72.6 | 44.9 | 30.2 | – | – | – | – | – | – |
| CCn1ncc(CN(C)C(=O)c2nc(-c3cc(C(=O)NCCN4CCCC4)n(Cc4ccc(OC)cc4)n3)nc3ccc(Cl)cc23)c1C [Compound 177] | 16000 | 3400 | 54000 | 44000 | – | – | – | – | – | – |
| CCn1ncc(CN(C)C(=O)c2nc(-c3cc(CNC)nn3C)nc3ccc(Cl)cc23)c1C [Compound 403] | – | – | 50000 | 22000 | 12000 | 10000 | – | – | – | – |
| CCn1ncc(CN(C)C(=O)c2nc(-c3ccc(OCCNC)c(Cl)c3)nc3ccc(CN(C)C)cc23)c1C [Compound 464] | 20000 | 2050 | 38000 | 19300 | – | – | – | – | – | – |
| CCn1ncc(CN(C)C(=O)c2cc(-c3ccc(NCC(CN(C)C)OC)c(C)n3)nc3ccc(Cl)cc23)c1C (stereo not shown) [Compound 592] | 4500 | 7230 | 35.5 | 10.9 | – | – | – | – | – | – |
| CCn1ncc(CN(C)C(=O)c2nc(-c3cc(Cl)cc(OCCCNC)c3)nc3ccc(Cl)cc23)c1C [Compound 128] | 4500 | 1900 | 350 | 800 | – | – | – | – | – | – |
| CCn1ncc(CN(C)C(=O)c2cc(-c3cnc[nH]3)nc3ccc(Cl)cc23)c1C [Compound 48] | 450 | 770 | 380 | 110 | – | – | – | – | – | – |
| CCn1ncc(CN(C)C(=O)c2nc(-c3ccc(OCCCNC)c(C4CC4)c3)nc3ccc(Cl)cc23)c1C [Compound 46] | 410 | 200 | 41 | 320 | – | – | – | – | – | – |
| CCn1ncc(CN(C)C(=O)c2cc(-c3cc(C(=O)NC)n(C)n3)nc3ccc(Cl)cc23)c1C [Compound 447] | 51.4 | 68.8 | 12.1 | 2 | – | – | – | – | – | – |
| CCn1ncc(CN(C)C(=O)c2nc(-c3cn[nH]c3C)nc3ccc(Cl)cc23)c1C [Compound 100] | 2100 | 1600 | 11000 | 6300 | – | – | – | – | – | – |
| CCn1ncc(CN(C)C(=O)c2nc(-c3ccc(OCC(O)CN4CCCC4)cc3Cl)nc3ccc(Cl)cc23)c1C (stereo not shown) [Compound 15] | 150 | 64 | 28 | 12 | – | – | – | – | – | – |
| CCn1ncc(CN(C)C(=O)c2nc(-c3cc(C)cc(NC4CCOCC4)c3)nc3ccc(Cl)cc23)c1C [Compound 78] | 1100 | 1200 | 67 | 66 | – | – | – | – | – | – |
